US12077503B2, “Substituted cyclic amides and their use as herbicides” (FMC CORPORATION, priority 2015, dated 2024)

Columns and labels:
Type in all cases: in vivo
[1] = test system: barnyardgrass (Echinochloa crus-galli); test: Test G Pre-Emergence Protocol; details: Echinochloa crus-galli, pre-emergence, 312 h, evaluated after 13 days; for pest or weed control at 15.625 g/ha: 15.625 g ai/ha, read-out: Barnyard grass damage rating (100=total damage to plant; 0=no damage to plant); for pest or weed control at 62.5 g/ha: 62.5 g ai/ha, 100=total damage to plant, 0=no damage to plant, read-out: plant damage rating, Barnyardgrass; for pest or weed control at 250 g/ha: 250 g ai/ha, read-out: Barnyardgrass damage rating (100=total damage to plant; 0=no damage to plant)
How it was run: (§1)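 Pre-emergence spray, 15.625/62.5/250 g/ha, vehicle acetone:water 50:50 + 0.5% Tween 20, applied 1 d after sowing. Glasshouse 24/16° C, 14 h light, 65% RH, watered twice daily. Visual damage rating at 13 d, 0–100 scale.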

[2] = test system: velvetleaf (Abutilon theophrasti); test: Test G Pre-Emergence Protocol; details: Abutilon theophrasti, pre-emergence, 312 h, evaluated after 13 days; for pest or weed control at 15.625 g/ha: 15.625 g ai/ha; for pest or weed control at 15.625 g/ha / pest or weed control at 250 g/ha: read-out: Velvetleaf damage rating (100=total damage to plant; 0=no damage to plant); for pest or weed control at 62.5 g/ha: 62.5 g ai/ha, 100=total damage to plant, 0=no damage to plant, read-out: plant damage rating, Velvetleaf; for pest or weed control at 250 g/ha: 250 g ai/ha
How it was run: as §1

[3] = test system: giant foxtail (Setaria faberi); test: Test G Pre-Emergence Protocol; details: Setaria faberi, pre-emergence, 312 h, evaluated after 13 days; for pest or weed control at 15.625 g/ha: 15.625 g ai/ha; for pest or weed control at 15.625 g/ha / pest or weed control at 250 g/ha: read-out: Foxtail, Giant damage rating (100=total damage to plant; 0=no damage to plant); for pest or weed control at 62.5 g/ha: 62.5 g ai/ha, 100=total damage to plant, 0=no damage to plant, read-out: plant damage rating, Foxtail, Giant; for pest or weed control at 250 g/ha: 250 g ai/ha
How it was run: as §1

[4] = test system: ivy-leaved morning glory (Ipomoea hederacea); test: Test G Pre-Emergence Protocol; details: Ipomoea, pre-emergence, 312 h, evaluated after 13 days; for pest or weed control at 15.625 g/ha: 15.625 g ai/ha, read-out: Morning-glory, Ivy-leaved damage rating (100=total damage to plant; 0=no damage to plant); for pest or weed control at 62.5 g/ha: 62.5 g ai/ha, 100=total damage to plant, 0=no damage to plant, read-out: plant damage rating, Morningglory, Ivy-leaved; for pest or weed control at 250 g/ha: 250 g ai/ha, read-out: Morningglory, Ivy-leaved damage rating (100=total damage to plant; 0=no damage to plant)
How it was run: as §1

corn (Zea mays) [5] = test: Test G Pre-Emergence Protocol; details: Zea mays, pre-emergence, 312 h, evaluated after 13 days; for plant injury at 15.625 g/ha: 15.625 g ai/ha; for plant injury at 15.625 g/ha / plant injury at 250 g/ha: read-out: Corn damage rating (100=total damage to plant; 0=no damage to plant); for plant injury at 62.5 g/ha: 62.5 g ai/ha, 100=total damage to plant, 0=no damage to plant, read-out: plant damage rating, Corn; for plant injury at 250 g/ha: 250 g ai/ha
How it was run: as §1

[6] = test system: redroot pigweed (Amaranthus retroflexus); test: Test G Pre-Emergence Protocol; details: Amaranthus retroflexus, pre-emergence, 312 h, evaluated after 13 days; for pest or weed control at 15.625 g/ha: 15.625 g ai/ha; for pest or weed control at 15.625 g/ha / pest or weed control at 250 g/ha: read-out: Pigweed, Redroot damage rating (100=total damage to plant; 0=no damage to plant); for pest or weed control at 62.5 g/ha: 62.5 g ai/ha, 100=total damage to plant, 0=no damage to plant, read-out: plant damage rating, Pigweed, Redroot; for pest or weed control at 250 g/ha: 250 g ai/ha
How it was run: as §1

[7] = test system: barnyardgrass (Echinochloa crus-galli); test: Test G Post-Emergence Protocol; details: Echinochloa crus-galli, post-emergence, 312 h; for pest or weed control at 15.625 g/ha: 15.625 g ai/ha, evaluated after 13 days (100=total damage to plant; 0=no damage to plant), read-out: Barnyardgrass damage rating; for pest or weed control at 62.5 g/ha: 62.5 g ai/ha, read-out: Barnyardgrass damage rating (100=total damage to plant; 0=no damage to plant); for pest or weed control at 62.5 g/ha / pest or weed control at 250 g/ha: evaluated after 13 days; for pest or weed control at 250 g/ha: 250 g ai/ha, read-out: damage to plant, Barnyardgrass (100=total damage to plant; 0=no damage to plant)
How it was run: (§2)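 Post-emergence herbicidal damage, scored visually 0–100 at 13 days. Application at 15.625, 62.5 or 250 g/ha onto 8-day-old plants grown under glasshouse control.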

[8] = test system: velvetleaf (Abutilon theophrasti); test: Test G Post-Emergence Protocol; details: Abutilon theophrasti, post-emergence, 312 h; for pest or weed control at 15.625 g/ha: 15.625 g ai/ha, evaluated after 13 days (100=total damage to plant; 0=no damage to plant), read-out: Velvetleaf damage rating; for pest or weed control at 62.5 g/ha: 62.5 g ai/ha, read-out: Velvetleaf damage rating (100=total damage to plant; 0=no damage to plant); for pest or weed control at 62.5 g/ha / pest or weed control at 250 g/ha: evaluated after 13 days; for pest or weed control at 250 g/ha: 250 g ai/ha, read-out: damage to plant, Velvetleaf (100=total damage to plant; 0=no damage to plant)
How it was run: as §2

[9] = test system: giant foxtail (Setaria faberi); test: Test G Post-Emergence Protocol; details: Setaria faberi, post-emergence, 312 h; for pest or weed control at 15.625 g/ha: 15.625 g ai/ha, evaluated after 13 days (100=total damage to plant; 0=no damage to plant), read-out: Foxtail, Giant damage rating; for pest or weed control at 62.5 g/ha: 62.5 g ai/ha, read-out: Foxtail, Giant damage rating (100=total damage to plant; 0=no damage to plant); for pest or weed control at 62.5 g/ha / pest or weed control at 250 g/ha: evaluated after 13 days; for pest or weed control at 250 g/ha: 250 g ai/ha, read-out: damage to plant, Foxtail, Giant (100=total damage to plant; 0=no damage to plant)
How it was run: as §2

[10] = test system: ivy-leaved morning glory (Ipomoea hederacea); test: Test G Post-Emergence Protocol; details: Ipomoea, post-emergence, 312 h; for pest or weed control at 15.625 g/ha: 15.625 g ai/ha, evaluated after 13 days (100=total damage to plant; 0=no damage to plant), read-out: Morningglory, Ivy-leaved damage rating; for pest or weed control at 62.5 g/ha: 62.5 g ai/ha, read-out: Morningglory, Ivy-leaved damage rating (100=total damage to plant; 0=no damage to plant); for pest or weed control at 62.5 g/ha / pest or weed control at 250 g/ha: evaluated after 13 days; for pest or weed control at 250 g/ha: 250 g ai/ha, read-out: damage to plant, Morningglory, Ivy-leaved (100=total damage to plant; 0=no damage to plant)
How it was run: as §2

corn (Zea mays) [11] = test: Test G Post-Emergence Protocol; details: Zea mays, post-emergence, 312 h; for plant injury at 15.625 g/ha: 15.625 g ai/ha, evaluated after 13 days (100=total damage to plant; 0=no damage to plant), read-out: Corn damage rating; for plant injury at 62.5 g/ha: 62.5 g ai/ha, read-out: Corn damage rating (100=total damage to plant; 0=no damage to plant); for plant injury at 62.5 g/ha / plant injury at 250 g/ha: evaluated after 13 days; for plant injury at 250 g/ha: 250 g ai/ha, read-out: damage to plant, Corn (100=total damage to plant; 0=no damage to plant)
How it was run: as §2

[12] = test system: redroot pigweed (Amaranthus retroflexus); test: Test G Post-Emergence Protocol; details: Amaranthus retroflexus, post-emergence, 312 h; for pest or weed control at 15.625 g/ha: 15.625 g ai/ha, evaluated after 13 days (100=total damage to plant; 0=no damage to plant), read-out: Pigweed, Redroot damage rating; for pest or weed control at 62.5 g/ha: 62.5 g ai/ha, read-out: Pigweed, Redroot damage rating (100=total damage to plant; 0=no damage to plant); for pest or weed control at 62.5 g/ha / pest or weed control at 250 g/ha: evaluated after 13 days; for pest or weed control at 250 g/ha: 250 g ai/ha, read-out: damage to plant, Pigweed, Redroot (100=total damage to plant; 0=no damage to plant)
How it was run: as §2

| Compound | pest or weed control at 15.625 g/ha [1] [%] | pest or weed control at 62.5 g/ha [1] [%] | pest or weed control at 250 g/ha [1] [%] | pest or weed control at 15.625 g/ha [2] [%] | pest or weed control at 62.5 g/ha [2] [%] | pest or weed control at 250 g/ha [2] [%] | pest or weed control at 15.625 g/ha [3] [%] | pest or weed control at 62.5 g/ha [3] [%] | pest or weed control at 250 g/ha [3] [%] | pest or weed control at 15.625 g/ha [4] [%] | pest or weed control at 62.5 g/ha [4] [%] | pest or weed control at 250 g/ha [4] [%] | plant injury at 15.625 g/ha (corn (Zea mays) [5]) [%] | plant injury at 62.5 g/ha (corn (Zea mays) [5]) [%] | plant injury at 250 g/ha (corn (Zea mays) [5]) [%] | pest or weed control at 15.625 g/ha [6] [%] | pest or weed control at 62.5 g/ha [6] [%] | pest or weed control at 250 g/ha [6] [%] | pest or weed control at 15.625 g/ha [7] [%] | pest or weed control at 62.5 g/ha [7] [%] | other results |
| --- | --- | --- | --- | --- | --- | --- | --- | --- | --- | --- | --- | --- | --- | --- | --- | --- | --- | --- | --- | --- | --- |
| CN1C[C@@H](c2ccc(C(F)(F)F)cc2)[C@H](C(=O)Nc2cncc(Cl)n2)C1=O (racemic) [Compound 1574] | 0 | 0 | 60 | 0 | 0 | 0 | 0 | 0 | 70 | 0 | 0 | 0 | 0 | 0 | 0 | 0 | 0 | 30 | 0 | 0 | pest or weed control at 250 g/ha [7]: 40%; pest or weed control at 15.625 g/ha [8]: 0%; pest or weed control at 62.5 g/ha [8]: 0%; pest or weed control at 250 g/ha [8]: 0%; pest or weed control at 15.625 g/ha [9]: 0%; pest or weed control at 62.5 g/ha [9]: 0%; pest or weed control at 250 g/ha [9]: 60%; pest or weed control at 15.625 g/ha [10]: 0%; pest or weed control at 62.5 g/ha [10]: 0%; pest or weed control at 250 g/ha [10]: 40%; plant injury at 15.625 g/ha (corn (Zea mays) [11]): 0%; plant injury at 62.5 g/ha (corn (Zea mays) [11]): 0%; plant injury at 250 g/ha (corn (Zea mays) [11]): 0%; pest or weed control at 15.625 g/ha [12]: 0%; pest or weed control at 62.5 g/ha [12]: 0%; pest or weed control at 250 g/ha [12]: 0% |
| Cc1cnc(NC(=O)[C@@H]2C(=O)N(C)C[C@H]2c2ccc(C(F)(F)F)cc2)nc1 (racemic) [Compound 1575] | 0 | 0 | 0 | 0 | 0 | 0 | 0 | 0 | 0 | 0 | 0 | 0 | 0 | 0 | 0 | 0 | 0 | 0 | 0 | 0 | pest or weed control at 250 g/ha [7]: 0%; pest or weed control at 15.625 g/ha [8]: 0%; pest or weed control at 62.5 g/ha [8]: 0%; pest or weed control at 250 g/ha [8]: 0%; pest or weed control at 15.625 g/ha [9]: 0%; pest or weed control at 62.5 g/ha [9]: 0%; pest or weed control at 250 g/ha [9]: 0%; pest or weed control at 15.625 g/ha [10]: 0%; pest or weed control at 62.5 g/ha [10]: 0%; pest or weed control at 250 g/ha [10]: 0%; plant injury at 15.625 g/ha (corn (Zea mays) [11]): 0%; plant injury at 62.5 g/ha (corn (Zea mays) [11]): 0%; plant injury at 250 g/ha (corn (Zea mays) [11]): 0%; pest or weed control at 15.625 g/ha [12]: 0%; pest or weed control at 62.5 g/ha [12]: 0%; pest or weed control at 250 g/ha [12]: 0% |
| Cc1onc(NC(=O)[C@@H]2C(=O)N(C)C[C@H]2c2ccc(C(F)(F)F)cc2)c1Cl (racemic) [Compound 1580] | 0 | 0 | 0 | 0 | 0 | 0 | 0 | 0 | 0 | 0 | 0 | 0 | 0 | 0 | 0 | 0 | 0 | 0 | 0 | 0 | pest or weed control at 250 g/ha [7]: 0%; pest or weed control at 15.625 g/ha [8]: 0%; pest or weed control at 62.5 g/ha [8]: 0%; pest or weed control at 250 g/ha [8]: 0%; pest or weed control at 15.625 g/ha [9]: 0%; pest or weed control at 62.5 g/ha [9]: 0%; pest or weed control at 250 g/ha [9]: 0%; pest or weed control at 15.625 g/ha [10]: 0%; pest or weed control at 62.5 g/ha [10]: 0%; pest or weed control at 250 g/ha [10]: 0%; plant injury at 15.625 g/ha (corn (Zea mays) [11]): 0%; plant injury at 62.5 g/ha (corn (Zea mays) [11]): 0%; plant injury at 250 g/ha (corn (Zea mays) [11]): 0%; pest or weed control at 15.625 g/ha [12]: 0%; pest or weed control at 62.5 g/ha [12]: 0%; pest or weed control at 250 g/ha [12]: 0% |
